{"source": "ChEMBL document CHEMBL1201862", "about": "“PubChem BioAssay data set” (2004)", "key": {"cells [1]": {"assay": "cells", "assay_type": "functional, cell-based"}, "cells [2]": {"assay": "cells", "assay_type": "functional, cell-based", "remark": "listed apart in the source"}, "[3]": {"assay": "growth suppression of PTEN-null colon cells, dose response, cell-based, HCT116 PTEN knockout (AID 1047);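 also: HCT116 colon tumor cells with PTEN knocked out; cells exposed to compound for 60 hours before readout; potency for loss of cell viability measured by luminescence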", "assay_type": "functional"}, "[4]": {"assay": "growth suppression of beta-catenin-knockout colon cells, dose response, cell-based, HCT116, human colon tumor (AID 1045);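 also: HCT116 colon tumor cells with beta catenin knocked out; cells exposed to compound for 60 hours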", "assay_type": "functional"}, "[5]": {"assay": "Luminescence Cell-Based Dose Retest to Confirm Inhibitors of Cancer Stem Cells. [Related pubchem assays (depositor defined):AID2717, AID2721]", "assay_type": "functional", "settings": "Homo sapiens"}, "[6]": {"assay": "microbe, parasite or virus in culture", "assay_type": "functional", "settings": "Mycobacterium tuberculosis"}, "[7]": {"assay": "inhibitors of intracellular T. cruzi replication, confirmation, NIH3T3 host cells, beta-gal luminescence (AID 2044);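 also: luminescent beta-galactosidase reporter signal from transgenic T. cruzi replicating inside host cells; inhibitors lower the luminescence signal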", "assay_type": "functional, cell-based"}, "[8]": {"assay": "cytotoxicity toward NIH3T3 fibroblasts, dose response, counter-screen, cell-based, ATP luminescence, mouse fibroblasts (AID 2010);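 also: cells exposed to compound for about 90 hours before reading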", "assay_type": "functional"}, "Cytochrome P450 2D6": {"biological_target": "Cytochrome P450 2D6 (Homo sapiens, UniProt P10635)", "sequence (P10635 whole entry)": "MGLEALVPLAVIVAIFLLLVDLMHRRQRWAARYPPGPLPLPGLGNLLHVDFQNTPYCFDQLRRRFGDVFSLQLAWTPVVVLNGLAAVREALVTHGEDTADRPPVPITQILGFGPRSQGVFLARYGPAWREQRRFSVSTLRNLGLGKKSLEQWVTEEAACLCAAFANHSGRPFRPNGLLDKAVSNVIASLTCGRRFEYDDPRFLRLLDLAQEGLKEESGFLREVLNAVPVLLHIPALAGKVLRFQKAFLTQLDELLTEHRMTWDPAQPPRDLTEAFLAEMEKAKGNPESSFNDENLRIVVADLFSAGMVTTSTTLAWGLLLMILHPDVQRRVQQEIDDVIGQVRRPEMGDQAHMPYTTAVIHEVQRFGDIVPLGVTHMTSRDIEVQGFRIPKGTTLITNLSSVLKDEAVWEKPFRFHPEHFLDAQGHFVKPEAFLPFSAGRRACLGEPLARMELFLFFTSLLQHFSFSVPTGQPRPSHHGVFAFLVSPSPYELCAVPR"}, "Cytochrome P450 2C9": {"biological_target": "Cytochrome P450 2C9 (Homo sapiens, UniProt P11712)", "sequence (P11712 whole entry)": "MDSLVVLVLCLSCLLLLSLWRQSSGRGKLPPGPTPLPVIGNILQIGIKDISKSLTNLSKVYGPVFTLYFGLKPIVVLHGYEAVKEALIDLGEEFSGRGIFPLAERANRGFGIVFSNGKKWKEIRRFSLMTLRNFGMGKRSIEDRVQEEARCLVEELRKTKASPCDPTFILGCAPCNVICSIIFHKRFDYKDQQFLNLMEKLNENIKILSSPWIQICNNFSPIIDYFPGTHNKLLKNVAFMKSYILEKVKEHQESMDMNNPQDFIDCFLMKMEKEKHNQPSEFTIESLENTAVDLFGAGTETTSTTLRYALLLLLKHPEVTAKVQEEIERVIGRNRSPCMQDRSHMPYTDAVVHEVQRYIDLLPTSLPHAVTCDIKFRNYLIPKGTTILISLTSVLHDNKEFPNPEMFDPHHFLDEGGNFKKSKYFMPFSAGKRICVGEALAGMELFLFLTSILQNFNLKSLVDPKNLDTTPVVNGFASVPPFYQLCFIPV"}, "[9]": {"biological_target": "T1, Heat shock factor protein 1 (Mus musculus, UniProt P38532)", "T1 sequence (P38532 whole entry)": "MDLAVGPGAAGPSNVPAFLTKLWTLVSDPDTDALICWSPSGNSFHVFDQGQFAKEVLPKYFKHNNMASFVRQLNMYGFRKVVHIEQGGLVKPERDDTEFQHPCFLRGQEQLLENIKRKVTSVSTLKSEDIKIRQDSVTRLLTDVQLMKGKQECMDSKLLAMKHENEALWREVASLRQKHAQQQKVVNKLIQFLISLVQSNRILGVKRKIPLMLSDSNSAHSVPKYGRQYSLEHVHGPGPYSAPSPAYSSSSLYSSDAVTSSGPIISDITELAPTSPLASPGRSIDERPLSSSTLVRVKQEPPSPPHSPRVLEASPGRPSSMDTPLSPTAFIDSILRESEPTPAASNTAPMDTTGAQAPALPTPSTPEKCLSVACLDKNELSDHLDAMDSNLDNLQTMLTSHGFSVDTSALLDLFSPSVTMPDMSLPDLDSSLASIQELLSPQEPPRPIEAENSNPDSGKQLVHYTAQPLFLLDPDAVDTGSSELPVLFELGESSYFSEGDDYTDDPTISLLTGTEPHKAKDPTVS", "assay": "HSF1 potentiators in luciferase reporter cells, confirmation, cell-based, NIH3T3, luminescence, dose retest (AID 435004);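 also: stress induced by proteasome inhibitor MG132 added 30 min after compound; actives raise luminescence as potentiators of the MG132 stress response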", "assay_type": "functional"}, "[10]": {"assay": "Shn3 3'UTR reporter inhibitors, dose response, cell-based, Clone20 osteoblasts, firefly luciferase, cherry-picked (AID 624132)", "assay_type": "functional"}, "[11]": {"assay": "HepG2 cell cytotoxicity, dose response, cytotoxicity control for Shn3 inhibitor project, CellTiter-Glo, cherry-picked (AID 624134)", "assay_type": "functional, cell-based"}, "[12]": {"assay": "inhibitors of HIV Env-driven cell fusion, dose response, cherry-pick (AID 652057)", "assay_type": "functional, cell-based"}, "[13]": {"assay": "ZM109 Env clade C HIV-1 fusion inhibitors, dose response, HeLa effector, CEM target cells, luciferase, cherry-pick (AID 652058)", "assay_type": "functional, cell-based"}, "[14]": {"assay": "inhibitors of clade B AD8 Env fusion, dose response, cell-based, cherry-pick (AID 652062);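 also: potency is for inhibitors of fusion seen as a drop in luminescence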", "assay_type": "functional"}, "Paired box protein Pax-8": {"biological_target": "Paired box protein Pax-8 (Homo sapiens, UniProt Q06710)", "sequence (Q06710 whole entry)": "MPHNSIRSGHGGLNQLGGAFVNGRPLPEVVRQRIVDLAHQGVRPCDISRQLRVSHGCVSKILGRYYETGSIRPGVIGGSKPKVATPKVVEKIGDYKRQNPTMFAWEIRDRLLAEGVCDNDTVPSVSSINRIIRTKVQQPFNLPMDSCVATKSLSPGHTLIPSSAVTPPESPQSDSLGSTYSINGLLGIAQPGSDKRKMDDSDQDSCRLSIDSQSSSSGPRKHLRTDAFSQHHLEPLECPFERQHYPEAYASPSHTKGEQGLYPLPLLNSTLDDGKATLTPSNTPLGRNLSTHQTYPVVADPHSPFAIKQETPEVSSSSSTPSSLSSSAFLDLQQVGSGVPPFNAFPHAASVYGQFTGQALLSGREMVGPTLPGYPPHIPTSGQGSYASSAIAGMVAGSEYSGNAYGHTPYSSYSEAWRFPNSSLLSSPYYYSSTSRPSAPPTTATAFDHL", "assay": "inhibitors of PAX8-driven TPO luciferase reporter, dose response, RMG-I cells, cherry-pick (AID 687027);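 also: luciferase reporter driven by Pax8 target thyroperoxidase promoter measured by SteadyGlo luminescence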", "assay_type": "functional, cell-based"}}, "note": "The source made the active and inactive calls.", "data": [{"smiles": "COc1ccc(NC(=O)CCC(=O)N(Cc2ccc(OC)c(OC)c2)c2nccs2)cc1", "values": [{"measurement": "EC50", "setting": "cells [1]", "result": "> 350 µM (not active)"}, {"measurement": "EC50", "setting": "cells [2]", "result": "> 350 µM (not active)"}]}, {"smiles": "Cc1ccc(S(=O)(=O)c2nc(-c3ccccc3Cl)oc2N(C)C)cc1", "values": [{"measurement": "EC50", "setting": "cells [1]", "result": "> 350 µM (not active)"}, {"measurement": "EC50", "setting": "cells [2]", "result": "> 350 µM (not active)"}]}, {"smiles": "CC(C)OCCCNC(=O)c1c(N)n(Cc2cccs2)c2nc3ccccc3nc12", "values": [{"measurement": "EC50", "setting": "[3]", "result": "84.7 µM (active)"}, {"measurement": "EC50", "setting": "[4]", "result": "216 µM (active)"}, {"measurement": "AC50", "setting": "[5]", "result": "3.51 µM (active)"}]}, {"smiles": "CCOC(=O)C1CCCN(C(=O)c2ccc3nc(-c4ccccc4)c(-c4ccccc4)nc3c2)C1", "note": "(stereo not given)", "values": [{"measurement": "EC50", "setting": "cells [1]", "result": "> 350 µM (not active)"}, {"measurement": "EC50", "setting": "cells [2]", "result": "> 350 µM (not active)"}]}, {"smiles": "CCNC(=O)COc1cccc(C(=O)NCc2ccccc2)c1", "values": [{"measurement": "EC50", "setting": "cells [1]", "result": "> 350 µM (not active)"}, {"measurement": "EC50", "setting": "cells [2]", "result": "> 350 µM (not active)"}]}, {"smiles": "O=C(/C=C/c1cn(-c2ccccc2)nc1-c1cccnc1)c1ccco1", "values": [{"measurement": "CC50", "setting": "[6]", "result": "11.5 µM (active)"}]}, {"smiles": "Cc1c(NC(=O)CSc2cccc3cccnc23)c(=O)n(-c2ccccc2)n1C", "values": [{"measurement": "EC50", "setting": "[7]", "result": "1.31 µM (active)"}, {"measurement": "EC50", "setting": "[3]", "result": "17.4 µM (active)"}, {"measurement": "EC50", "setting": "[8]", "result": "> 30 µM (not active)"}, {"measurement": "EC50", "setting": "[4]", "result": "17 µM (active)"}]}, {"smiles": "FC(F)(F)c1cnc(N2CCN(C(S)=NCc3ccccc3)CC2)c(Cl)c1", "values": [{"measurement": "EC50", "setting": "cells [1]", "result": "> 350 µM (not active)"}, {"measurement": "EC50", "setting": "cells [2]", "result": "> 350 µM (not active)"}]}, {"smiles": "CC(=O)c1ccc2c(c1)C1C(Cl)C(Sc3ccccc3[N+](=O)[O-])CC1C(c1ccccc1)N2", "note": "(stereo not given)", "values": [{"measurement": "CC50", "setting": "[6]", "result": "> 40 µM (active)"}]}, {"smiles": "CC1CC/C(=C\\c2ccc3c(c2)OCO3)C(=O)/C1=C/c1ccc2c(c1)OCO2", "note": "(stereo not given)", "values": [{"measurement": "EC50", "setting": "[3]", "result": "13.8 µM (active)"}, {"measurement": "EC50", "setting": "[4]", "result": "14.3 µM (active)"}, {"measurement": "AC50", "setting": "[5]", "result": "2.92 µM (active)"}, {"measurement": "AC50", "setting": "Cytochrome P450 2D6", "result": "2.51 µM (inconclusive)"}, {"measurement": "AC50", "setting": "Cytochrome P450 2C9", "result": "6.31 µM (inconclusive)"}]}, {"smiles": "Cc1cc(C)cc(-n2c(N)c(C(=O)Nc3c(C)n(C)n(-c4ccccc4)c3=O)c3nc4ccccc4nc32)c1", "values": [{"measurement": "EC50", "setting": "[7]", "result": "1.21 µM (active)"}, {"measurement": "EC50", "setting": "[3]", "result": "11.8 µM (active)"}, {"measurement": "EC50", "setting": "[8]", "result": "> 60 µM (not active)"}, {"measurement": "EC50", "setting": "[4]", "result": "13 µM (active)"}]}, {"smiles": "O=C(NCCCN1CCOCC1)c1cc(-c2ccccc2)on1", "values": [{"measurement": "EC50", "setting": "cells [1]", "result": "11.5 µM (active)"}, {"measurement": "EC50", "setting": "cells [2]", "result": "> 350 µM (not active)"}]}, {"smiles": "CN(C)CCNC(=O)/C(=C/c1ccc(-c2cccc(Cl)c2)o1)NC(=O)c1ccccc1", "values": [{"measurement": "EC50", "setting": "[3]", "result": "10.3 µM (active)"}, {"measurement": "EC50", "setting": "[4]", "result": "10.3 µM (active)"}, {"measurement": "EC50", "setting": "[9]", "result": "> 260 µM (inactive)"}]}, {"smiles": "Cc1cnc(NC(=O)NCC2CCCC(CNC(=O)Nc3ncc(C)s3)C2)s1", "note": "(stereo not given)", "values": [{"measurement": "CC50", "setting": "[6]", "result": "> 40 µM (active)"}]}, {"smiles": "COc1ccc(/C=C2\\SC(=O)N(CCC(=O)N(C)C3CCS(=O)(=O)C3)C2=O)cc1", "note": "(stereo not given)", "values": [{"measurement": "EC50", "setting": "cells [1]", "result": "> 350 µM (not active)"}, {"measurement": "EC50", "setting": "cells [2]", "result": "> 350 µM (not active)"}]}, {"smiles": "CCC12CN(S(=O)(=O)c3ccc(C)cc3)CC(CC)(CN(S(=O)(=O)c3ccc(C)cc3)C1)C2=O", "values": [{"measurement": "AC50", "setting": "[10]", "result": "3.48 µM (active)"}, {"measurement": "AC50", "setting": "[11]", "result": "66.7 µM (active)"}, {"measurement": "AC50", "setting": "[12]", "result": "2.44 µM (active)"}, {"measurement": "AC50", "setting": "[13]", "result": "42.7 µM (active)"}, {"measurement": "AC50", "setting": "[14]", "result": "22 µM (active)"}]}, {"smiles": "Cc1ccc(S(=O)(=O)N(C)C[C@@H]2Oc3ccc(NS(=O)(=O)c4ccccc4)cc3CC(=O)N([C@H](C)CO)C[C@@H]2C)cc1", "values": [{"measurement": "AC50", "setting": "[12]", "result": "2.75 µM (active)"}, {"measurement": "AC50", "setting": "[13]", "result": "8.38 µM (active)"}, {"measurement": "AC50", "setting": "[14]", "result": "26.6 µM (active)"}]}, {"smiles": "O=[N+]([O-])c1cc2c(ccc3occc32)o1", "values": [{"measurement": "AC50", "setting": "Paired box protein Pax-8", "result": "2.49 µM (active)"}]}, {"smiles": "CN(Cc1ccccc1)N=Nc1[nH]cnc1C(N)=O", "values": [{"measurement": "AC50", "setting": "Paired box protein Pax-8", "result": "21.2 µM (active)"}]}, {"smiles": "C[C@H](CO)N1C[C@H](C)[C@H](CN(C)S(=O)(=O)c2ccccc2)Oc2ccc(NS(=O)(=O)c3ccc(F)cc3)cc2CC1=O", "values": [{"measurement": "AC50", "setting": "[12]", "result": "15.1 µM (active)"}, {"measurement": "AC50", "setting": "[13]", "result": "28.8 µM (active)"}]}, {"smiles": "Cc1ccc(S(=O)(=O)N2CCN(CC(=O)N/N=C\\C(Cl)=C\\c3ccccc3)CC2)cc1", "values": [{"measurement": "EC50", "setting": "[3]", "result": "44.2 µM (active)"}, {"measurement": "EC50", "setting": "[4]", "result": "39.3 µM (active)"}]}]}
